According to patent US20240239752A1, “BICYCLIC HETEROAROMATIC INHIBITORS OF KLK5” (BioCryst Pharmaceuticals, Inc., priority 2021, published 2024):
pIC50: −log10 of the molar value.

Target: T1, recombinant human KLK5 (Homo sapiens, UniProt Q9Y337)
T1 construct: purchased Novoprotein or R&D Systems C415 or 1108-SE
T1 sequence (Q9Y337 23-293): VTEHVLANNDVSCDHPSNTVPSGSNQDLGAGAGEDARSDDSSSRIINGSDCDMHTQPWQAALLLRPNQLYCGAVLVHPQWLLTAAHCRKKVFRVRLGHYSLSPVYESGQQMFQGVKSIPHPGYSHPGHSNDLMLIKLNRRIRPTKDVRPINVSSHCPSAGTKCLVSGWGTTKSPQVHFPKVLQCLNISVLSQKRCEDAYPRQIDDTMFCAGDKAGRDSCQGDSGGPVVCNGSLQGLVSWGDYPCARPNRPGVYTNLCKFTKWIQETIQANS
Test: Kallikrein (KLK) 5 enzymatic assay (Boc-VPR-AMC fluorogenic substrate)
Assay type: biochemical
Conditions: recombinant human KLK5 0.1 μg/well, Boc-VPR-AMC 100 μM, pH 7.5, room temperature, 1% DMSO; tested a minimum of three times
Text: Kallikrein-5 (KLK5) is a member of the serine protease family of proteolytic enzymes, confirmed to have trypsin-like activity (Michael I P, et al. Biochemical and enzymatic characterization of human kallikrein 5 (hK5), a novel serine protease potentially involved in cancer progression (J. Biol. Chem. 2005 Apr. 15; 280 (15): 14628-35). Boc-VPR-AMC is a fluorogenic peptide substrate composed of the short peptide chain, Valine-Proline-Arginine (VPR) and the fluorophore, 7-amino-4-methylcoumarin (AMC). KLK5 is able to cleave the fluorogenic peptide substrate Boc-VPR-AMC, releasing the AMC fluorophore, which causes a fluorescent emission in proportion with the enzymatic activity of KLK5. The KLK5 enzymatic activity is monitored by measuring fluorescent emission at wavelengths of 380 nm (excitation) and 460 nm (emission).
The IC50 value of compounds against KLK5 (i.e., the concentration of the compound that inhibits 50% of the enzymatic activity) was calculated according to the procedure reported by R&D systems (Recombinant human KLK5, Catalog Number: 1108-SE), with the exception the pH of the assay was modified from 8.0 to 7.5. Specifically, recombinant human KLK5 (Novoprotein Catalog #C415 or R&D systems Catalog #1108-SE) and fluorogenic peptide Boc-VPR-AMC substrate (R&D Catalog #ES011) were each separately diluted in assay buffer (0.1 M NaH2PO4 buffer, pH 7.5). The compounds of the disclosure were dissolved in DMSO at a concentration of 10 mM. A portion of this stock solution was added to the recombinant human KLK5 solution to provide a desired concentration of the compounds and the mixture was incubated at room temperature. The reaction was initiated by the addition of the fluorogenic peptide substrate at room temperature. The final concentration of recombinant human KLK5 was 0.1 μg/well and the final concentration of the fluorogenic substrate was 100 μM (final volume of 100 μL, 1% DMSO). The assays were performed in 96 well F16 Black Maxisorp Plate (Nunc Catalog #475515). Controls included assay buffer alone and enzyme solutions to which DMSO was added. The reaction rates were measured spectrophotometrically by excitation at 380 nm and emission at 460 nm on a Biotek Synergy H1 plate reader.
The reaction rate for enzyme alone was compared to the reaction rate of enzyme in the presence of compound and the percent inhibition was calculated as shown below:
Percent Inhibition=[Rate with inhibitor/Rate without inhibitor)]×100
An IC50 indicates a compound concentration that inhibits 50% of the enzymatic activity. Compounds were tested a minimum of three times.

| Structure (SMILES) | pIC50 |
| --- | --- |
| CCC(=O)N1CCC2(CC1)CC(Oc1cccc(C)c1CC(=O)O)c1cc(-c3ccc4ccnc(N)c4c3)ccc12 (centres unmarked) [Compound 388b, 2-(2-((5-(1-aminoisoquinolin-7-yl)-1′-propionyl-2,3-dihydrospiro[indene-1,4′-piperidin]-3-yl)oxy)-6-methylphenyl)acetic acid] | > 6.00 |
| N#Cc1cccc(CC(=O)O)c1O[C@@H]1CCc2ccc(-c3cccc4c(N)nccc34)cc21 [Compound 430b, (R)-2-(2-((6-(1-aminoisoquinolin-5-yl)-2,3-dihydro-1H-inden-1-yl)oxy)-3-cyanophenyl)acetic acid] | 5.00 to 6.00 |
| Nc1nccc2c(-c3cc(Cl)c4c(c3)C(Oc3ccccc3CC(=O)O)CC4)cccc12 (centres unmarked) [Compound 258a, 2-(2-((6-(1-aminoisoquinolin-5-yl)-4-chloro-2,3-dihydro-1H-inden-1-yl)oxy)phenyl)acetic acid] | > 6.00 |
| COc1ccc(OCc2nn(C3CCC3)c3ccc(-c4cccc5c(N)nccc45)cc23)c(CC(=O)O)c1 [Compound 171b, 2-(2-((5-(1-aminoisoquinolin-5-yl)-1-cyclobutyl-1H-indazol-3-yl)methoxy)-5-methoxyphenyl)acetic acid] | > 6.00 |
| COCCC1(CCOC)CC(Oc2ccccc2CC(=O)O)c2cc(-c3ccc4ccnc(N)c4c3)ccc21 (centres unmarked) [Compound 446f, 2-(2-((6-(1-aminoisoquinolin-7-yl)-3,3-bis(2-methoxyethyl)-2,3-dihydro-1H-inden-1-yl)oxy)phenyl)acetic acid] | > 6.00 |
| Nc1nccc2ccc(-c3ccc4nn(C5CCC5)c(COc5cc(OC(F)(F)F)ccc5CC(=O)O)c4c3)cc12 [Compound 153d, 2-(2-((5-(1-aminoisoquinolin-7-yl)-2-cyclobutyl-2H-indazol-3-yl)methoxy)-4-(trifluoromethoxy)phenyl)acetic acid] | < 5.00 |
| COc1c(C(=N)N)cccc1-c1ccc2c(c1)c(COc1ccccc1CC(=O)O)nn2C1CCCC1 [Compound 263d, 2-(2-((5-(3-carbamimidoyl-2-methoxyphenyl)-1-cyclopentyl-1H-indazol-3-yl)methoxy)phenyl)acetic acid] | > 6.00 |
| CC(C)(C)OC(=O)NCc1cc(-c2cccc3c(N)nccc23)cc2c(COc3ccccc3CC(=O)O)nn(C3CCCCO3)c12 (centres unmarked) [Compound 278c, 2-(2-((5-(1-aminoisoquinolin-5-yl)-7-(((tert-butoxycarbonyl)amino)methyl)-1-(tetrahydro-2H-pyran-2-yl)-1H-indazol-3-yl)methoxy)phenyl)acetic acid] | 5.00 to 6.00 |
| Nc1nccc2ccc(-c3ccc4c(c3)c(COc3c(CC(=O)O)cccc3C(=O)O)nn4C3CCC3)cc12 [Compound 176a, 2-((5-(1-aminoisoquinolin-7-yl)-1-cyclobutyl-1H-indazol-3-yl)methoxy)-3-(carboxymethyl)benzoic acid] | > 6.00 |
| COc1c(C(=N)N)cccc1-c1ccc2c(c1)c(COc1ccccc1CC(=O)O)nn2C1CCOC1 (centres unmarked) [Compound 264d, 2-(2-((5-(3-carbamimidoyl-2-methoxyphenyl)-1-(tetrahydrofuran-3-yl)-1H-indazol-3-yl)methoxy)phenyl)acetic acid] | > 6.00 |
| Nc1nccc2c(-c3ccc4c(c3)c(COc3ccccc3CC(=O)O)nn4C3CCCCO3)cccc12 (centres unmarked) [Compound 92b, 2-(2-((5-(1-aminoisoquinolin-5-yl)-1-(tetrahydro-2H-pyran-2-yl)-1H-indazol-3-yl)methoxy)phenyl)acetic acid] | > 6.00 |
| CCC(=O)N1CC(n2nc3ccc(-c4cccc5c(N)nccc45)cc3c2COc2ccccc2CC(=O)O)C1 [Compound 129b, 2-(2-((5-(1-aminoisoquinolin-5-yl)-2-(1-propionylazetidin-3-yl)-2H-indazol-3-yl)methoxy)phenyl)acetic acid] | 5.00 to 6.00 |
| Nc1nccc2ccc(-c3ccc4c(c3)c(COc3ccccc3CC(=O)O)nn4C3CCCC3)cc12 [Compound 42d, 2-(2-((5-(1-aminoisoquinolin-7-yl)-1-cyclopentyl-1H-indazol-3-yl)methoxy)phenyl)acetic acid] | > 6.00 |
| CC(C)(C)OC(=O)N1CC(Cn2nc3ccc(-c4cccc5c(N)nccc45)cc3c2COc2ccccc2CC(=O)O)C1 [Compound 139f, 2-(2-((5-(1-aminoisoquinolin-5-yl)-2-((1-(tert-butoxycarbonyl)azetidin-3-yl)methyl)-2H-indazol-3-yl)methoxy)phenyl)acetic acid] | > 6.00 |
| Nc1nccc2c(-c3cnc4c(c3)c(COc3ccccc3CC(=O)O)nn4C3CCC3)cccc12 [Compound 198b, 2-(2-((5-(1-aminoisoquinolin-5-yl)-1-cyclobutyl-1H-pyrazolo[3,4-b]pyridin-3-yl)methoxy)phenyl)acetic acid] | > 6.00 |
| CC(C)OC(=O)N1CC[C@@H](n2nc(COc3ccccc3CC(=O)O)c3cc(-c4cccc5c(N)nccc45)ccc32)C1 [Compound 363b, (R)-2-(2-((5-(1-aminoisoquinolin-5-yl)-1-(1-(isopropoxycarbonyl)pyrrolidin-3-yl)-1H-indazol-3-yl)methoxy)phenyl)acetic acid] | > 6.00 |
| CC(C(=O)O)c1ccccc1OCc1nn(C2CCOC2)c2ccc(-c3ccc4ccnc(N)c4c3)cc12 (centres unmarked) [Compound 242b, 2-(2-((5-(1-aminoisoquinolin-7-yl)-1-(tetrahydrofuran-3-yl)-1H-indazol-3-yl)methoxy)phenyl)propanoic acid] | > 6.00 |
| CC(C)n1nc(C(=O)Nc2ccccc2CC(=O)O)c2cc(-c3ccc4ccnc(N)c4c3)ccc21 [Compound 63d, 2-(2-(5-(1-aminoisoquinolin-7-yl)-1-isopropyl-1H-indazole-3-carboxamido)phenyl)acetic acid] | 5.00 to 6.00 |
| Nc1nccc2c(-c3ccc4nn([C@H]5CCN(CCO)C5)c(COc5ccccc5CC(=O)O)c4c3)cccc12 [Compound 115b, (S)-2-(2-((5-(1-aminoisoquinolin-5-yl)-2-(1-(2-hydroxyethyl)pyrrolidin-3-yl)-2H-indazol-3-yl)methoxy)phenyl)acetic acid] | 5.00 to 6.00 |
| Nc1nccc2ccc(-c3ccc4c(c3)c(COc3ccccc3CC(=O)O)nn4-c3ccccc3)cc12 [Compound 201c, 2-(2-((5-(1-aminoisoquinolin-7-yl)-1-phenyl-1H-indazol-3-yl)methoxy)phenyl)acetic acid] | > 6.00 |
| COc1ccc(CC(=O)O)c(OCc2coc3c(OC)cc(-c4ccc5ccnc(N)c5c4)cc23)c1 [Compound 234c, 2-(2-((5-(1-aminoisoquinolin-7-yl)-7-methoxybenzofuran-3-yl)methoxy)-4-methoxyphenyl)acetic acid] | < 5.00 |
| Cn1c(=O)n(Cc2ccccc2CC(=O)O)c2cc(-c3cccc(C(=N)N)c3)ccc21 [Compound 219c, 2-(2-((6-(3-carbamimidoylphenyl)-3-methyl-2-oxo-2,3-dihydro-1H-benzo[d]imidazol-1-yl)methyl)phenyl)acetic acid] | 5.00 to 6.00 |
| CC(C)(C)OC(=O)NC1CC(n2nc3ccc(-c4cccc5c(N)nccc45)cc3c2COc2ccccc2CC(=O)O)C1 (centres unmarked) [Compound 135f, 2-(2-((5-(1-aminoisoquinolin-5-yl)-2-(3-(tert-butoxycarbonylamino)cyclobutyl)-2H-indazol-3-yl)methoxy)phenyl)acetic acid] | > 6.00 |
| CCC(=O)N1CC(n2nc3ccc(-c4ccc5ccnc(N)c5c4)cc3c2COc2ccccc2CC(=O)O)C1 [Compound 128c, 2-(2-((5-(1-aminoisoquinolin-7-yl)-2-(1-propionylazetidin-3-yl)-2H-indazol-3-yl)methoxy)phenyl)acetic acid] | 5.00 to 6.00 |
| CC(C)N1CCN(C2CC(Oc3ccccc3CC(=O)O)c3cc(-c4cccc5c(N)nccc45)ccc32)CC1 (centres unmarked) [Compound 456g, 2-(2-((6-(1-aminoisoquinolin-5-yl)-3-(4-isopropylpiperazin-1-yl)-2,3-dihydro-1H-inden-1-yl)oxy)phenyl)acetic acid] | > 6.00 |
| CC(C)n1nc(COc2ccccc2CC(=O)O)c2cc(-c3ccc4c(c3)C(N)CO4)ccc21 (centres unmarked) [Compound 76c, 2-(2-((5-(3-amino-2,3-dihydrobenzofuran-5-yl)-1-isopropyl-1H-indazol-3-yl)methoxy)phenyl)acetic acid] | < 5.00 |
